Laboratory results as given in patent US8487093B2, “β-lactamase inhibitors” (Merck Sharp & Dohme Corp., priority 2008, dated 2013).
Where two headings read alike, the source gives them in different places.

Experiments:
AmpC (P. aeruginosa) = AmpC (P. aeruginosa) (Pseudomonas aeruginosa (strain ATCC 15692 / DSM 22644 / CIP 104116 / JCM 14847 / LMG 12228 / 1C / PRS 101 / PAO1), UniProt P24735); assay: biochemical
Method: The Class C enzyme activities were measured in the presence of the test inhibitor in spectrophotometric assay against the commercially available substrate, nitrocefin. The enzyme AmpC (P. aeruginosa.), and the substrate, were dissolved in 100 mM KH2PO4 buffer (pH 7). The buffer also contains 0.005% BSA. The test inhibitor was dissolved in DMSO and diluted 1:20 in the assay, resulting in a final concentration range of 50 μM to 0.0002 μM. In a 96-well microplate, the test inhibitor was incubated with the beta-lactamase enzyme for 40 minutes at ambient temperature, the substrate solution was added, and the incubation continued for another 40 minutes. […] The IC50 value was determined from semi logarithmic plots of enzyme inhibition versus inhibitor concentration, with a curve generated using a 4-parameter fit.

[1] = tested on: CL 5701 (Pseudomonas aeruginosa; Pa AmpC); assay: Synergy assay (checkerboard) with imipenem against P. aeruginosa strain CL5701; type: cell-based; details: for 2X Synergy CL5701: BLI concentration reducing the MIC of imipenem by a factor of 2, P. aeruginosa strain CL5701
KPC-2 (K. pneumoniae) = KPC-2 (K. pneumoniae) (Klebsiella pneumoniae, UniProt Q9F663); assay: biochemical
Chain of KPC-2 (K. pneumoniae) (Q9F663 25-293 limits assumed): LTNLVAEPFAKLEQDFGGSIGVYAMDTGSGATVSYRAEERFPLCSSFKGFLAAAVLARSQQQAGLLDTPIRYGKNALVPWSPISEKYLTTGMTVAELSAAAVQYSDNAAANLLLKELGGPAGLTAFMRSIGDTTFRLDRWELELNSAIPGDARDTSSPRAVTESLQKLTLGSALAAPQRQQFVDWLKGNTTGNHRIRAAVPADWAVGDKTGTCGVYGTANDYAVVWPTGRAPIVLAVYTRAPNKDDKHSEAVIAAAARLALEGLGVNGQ

[2] = tested on: CL 6569 (Klebsiella pneumoniae; KPC-2); assay: Synergy assay (checkerboard) with imipenem against K. pneumoniae strain CL6569; details: for 16X Synergy CL6569: BLI concentration reducing the MIC of imipenem by a factor of 16, K. pneumoniae strain CL6569; for 32X Synergy CL6569: BLI concentration reducing the MIC of imipenem by a factor of 32, K. pneumoniae strain CL6569; for 64X Synergy CL6569: BLI concentration reducing the MIC of imipenem by a factor of 64, K. pneumoniae strain CL6569
Excerpt: The assay determines the concentration of a β-lactamase inhibitor required to reduce the MIC of a β-lactam antibiotic by one-half, one-quarter, one-eighth, one-sixteenth and one-thirty-second against strains of bacteria normally resistant to the antibiotic in question. This is accomplished by titrating the BLI in a serial dilution across a microtiter plate while at the same time titrating the antibiotic in a serial dilution down the microtiter plate and then inoculating the plate with the bacterial strain in question and allowing the bacteria to grow up overnight. Each well in this microplate checkerboard contains a different combination of concentrations of the inhibitor and the antibiotic allowing a full determination of any synergy between the two.
Plates are left at 37° C. for about 20 hours and scored for growth by eye.
Synergy may be expressed as a ratio of the minimum inhibitory concentration (MIC) of an antibiotic tested in the absence of a β-lactamase inhibitor to the MIC of the same antibiotic tested in the presence of the β-lactamase inhibitor. […] Alternatively, the synergy effect may be expressed as a factor, again, utilizing a concentration of the BLI to lower the MIC of the antibiotic.

[3] = Table 2, read-out: P.a. AmpC IC50
[4] = Table 3, read-out: P.a. AmpC IC50
[5] = BLI concentration reducing the MIC of imipenem by a factor of 4, P. aeruginosa strain CL5701
[6] = BLI concentration reducing the MIC of imipenem by a factor of 8, P. aeruginosa strain CL5701
[7] = Table 2, read-out: K.p. KPC-2 IC50
[8] = Table 3, read-out: K.p. KPC-2 IC50

Chain of AmpC (P. aeruginosa) (P24735 27-397): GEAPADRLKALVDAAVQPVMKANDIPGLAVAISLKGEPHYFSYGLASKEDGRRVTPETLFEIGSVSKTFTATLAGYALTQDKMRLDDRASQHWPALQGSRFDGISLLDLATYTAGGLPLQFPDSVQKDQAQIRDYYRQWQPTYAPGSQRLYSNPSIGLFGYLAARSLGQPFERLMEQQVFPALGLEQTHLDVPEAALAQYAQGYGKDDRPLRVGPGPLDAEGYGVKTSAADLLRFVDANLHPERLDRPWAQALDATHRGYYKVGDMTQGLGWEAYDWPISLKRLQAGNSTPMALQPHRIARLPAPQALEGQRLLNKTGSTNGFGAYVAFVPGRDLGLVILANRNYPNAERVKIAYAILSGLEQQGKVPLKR

| SMILES | IC50 (AmpC (P. aeruginosa); [3]) | IC50 (AmpC (P. aeruginosa); [4]) | 2X Synergy CL5701 [1] | 4X Synergy CL5701 [1, 5] | 8X Synergy CL5701 [1, 6] | IC50 (KPC-2 (K. pneumoniae); [7]) | IC50 (KPC-2 (K. pneumoniae); [8]) | 16X Synergy CL6569 [2] | 32X Synergy CL6569 [2] | 64X Synergy CL6569 [2] | IC50 (AmpC (P. aeruginosa)) | 4X Synergy CL5701 [1] | 8X Synergy CL5701 [1] | IC50 (KPC-2 (K. pneumoniae); K.p. KPC-2 IC50, Table 2) | IC50 (KPC-2 (K. pneumoniae); K.p. KPC-2 IC50, Table 3) |
| --- | --- | --- | --- | --- | --- | --- | --- | --- | --- | --- | --- | --- | --- | --- | --- |
| CN(C)c1cc(NC(=O)[C@@H]2CC[C@@H]3CN2C(=O)N3OS(=O)(=O)O)ccn1 [Example 8, (2S,5R)—N-[2-(Dimethylamino)pyridin-4-yl]-7-oxo-6-(sulfooxy)-1,6-diazabicyclo[3.2.1]octane-2-carboxamide] | 1.6 nM | 16 nM | 12.5 µM | 100 µM | > 100 µM | 1.6 nM | 16 nM | 25 µM | 25 µM | 50 µM |  |  |  |  |  |
| NCc1ccc(NC(=O)[C@@H]2CC[C@@H]3CN2C(=O)N3OS(=O)(=O)O)cc1 [Example 9, (2S,5R)—N-[4-(aminomethyl)phenyl]-7-oxo-6-(sulfooxy)-1,6-diazabicyclo[3.2.1]octane-2-carboxamide] | 20 nM |  | 0.78 µM | 3.12 µM | 6.25 µM | 72 nM |  | 6.25 µM | 6.25 µM | 12.5 µM |  |  |  |  |  |
| O=C(NC1CCNCC1)[C@@H]1CC[C@@H]2CN1C(=O)N2OS(=O)(=O)O [Example 1, (2S,5R)-7-oxo-N-piperidin-4-yl-6-(sulfooxy)-1,6-diazabicyclo[3.2.1]octane-2-carboxamide] |  |  | 0.2 µM | 3.12 µM | 6.25 µM |  |  | 6.25 µM | 12.5 µM | 12.5 µM |  |  |  |  |  |
| COc1cc(NC(=O)[C@@H]2CC[C@@H]3CN2C(=O)N3OS(=O)(=O)O)ccn1 [Example 7, (2S,5R)—N-(2-Methoxypyridin-4-yl)-7-oxo-6-(sulfooxy)-1,6-diazabicyclo[3.2.1]octane-2-carboxamide] | 1.1 nM | 11 nM | 50 µM | 100 µM | > 100 µM | 8 nM | 8 nM | 25 µM | 50 µM | > 100 µM |  |  |  |  |  |
| O=C(Nc1ccncc1)[C@@H]1CC[C@@H]2CN1C(=O)N2OS(=O)(=O)O [Example 6, (2S,5R)-7-Oxo-N-pyridin-4-yl-6-(sulfooxy)-1,6-diazabicyclo[3.2.1]octane-2-carboxamide] |  |  | 12.5 µM |  |  |  |  | 50 µM | 50 µM | > 100 µM | 6 nM | 25 µM | 100 µM |  |  |
| O=C(N[C@@H]1CCNC1)[C@@H]1CC[C@@H]2CN1C(=O)N2OS(=O)(=O)O [Example 4, (2S,5R)-7-Oxo-N-[(3R)-pyrrolidin-3-yl]-6-(sulfooxy)-1,6-diazabicyclo[3.2.1]-octane-2-carboxamide] | 29000 nM |  | 100/100/>100 μM | 100/100/>100 μM | 100/100/>100 μM |  |  | 50 µM | 100 µM | 100 µM |  |  |  | 4400 nM |  |
| O=C(N[C@H]1CCN(C2CCNCC2)C1=O)[C@@H]1CC[C@@H]2CN1C(=O)N2OS(=O)(=O)O [Example 33] |  |  |  |  |  |  | 21 nM |  |  |  | 620 nM |  |  |  |  |
| O=C(NC1CNC1)[C@@H]1CC[C@@H]2CN1C(=O)N2OS(=O)(=O)O [Example 20] |  | 1000 nM |  |  |  |  | 17 nM |  |  |  |  |  |  |  |  |
| O=C(OC1CNNC1)[C@@H]1CC[C@@H]2CN1C(=O)N2OS(=O)(=O)O [Example 109] |  | 700 nM |  |  |  |  | 62 nM |  |  |  |  |  |  |  |  |
| O=C(N[C@H]1CCCNCC1)[C@@H]1CC[C@@H]2CN1C(=O)N2OS(=O)(=O)O [Example 2, (2S,5R)—N-[(4S)-Azepan-4-yl]-7-oxo-6-(sulfooxy)-1,6-diazabicyclo[3.2.1]-octane-2-carboxamide] |  |  | 3.12 µM | 6.25 µM | 6.25 µM | 245 nM | 245 nM | 6.25 µM | 12.5 µM | 25 µM | 69 nM |  |  |  |  |
| O=C(N[C@@H]1CCNC1)[C@@H]1CC[C@@H]2CN1C(=O)N2OS(=O)(=O)O [Example 21] |  | 29100 nM |  |  |  |  |  |  |  |  |  |  |  |  | 4300 nM |
| O=C(OCCC1CCNCC1)[C@@H]1CC[C@@H]2CN1C(=O)N2OS(=O)(=O)O [Example 112] |  |  |  |  |  |  | 13 nM |  |  |  | 165 nM |  |  |  |  |
| NCc1ccc(OC(=O)[C@@H]2CC[C@@H]3CN2C(=O)N3OS(=O)(=O)O)cc1 [Example 115] |  | 24 nM |  |  |  |  | 2 nM |  |  |  |  |  |  |  |  |
